The source of these data is patent US12281149B2, “Modulators of G-protein coupled receptors” (priority 2021, dated 2025).

*1 amine or outer side, *2 acyl side, *3 side chain or, on linkers, in order; H or OH if unused. Where a SMILES comes first, the peptide text is derived from it. Side-chain parts run from the residue outwards. [ ]: non-standard residue; d: D form. The star is where a group is joined. cPentCO(1-(4-ClPh)) = O=C(C1(c2ccc(Cl)cc2)CCCC1)*; C20 diacid = O=C(O)CCCCCCCCCCCCCCCCCCC(=O)*; β2hAla(2S) = C[C@@H](CN[*:1])C(=O)[*:2]; γGlu = O=C(O)[C@H](CCC(=O)[*:2])N[*:1]; X61 = CC(C)(C(=O)*)c1ccccc1F; AEEA = NCCOCCOCC(=O)O; Aib = CC(C)(N)C(=O)O; βAla = NCCC(=O)O

What all share (type): cell-based
The target of assay [1] is T1, GLP-1 receptor (Homo sapiens, UniProt P43220). Kind of assay: HitHunter cAMP assay, GLP-1 receptor. Particulars: for EC50: CHO cells stably expressing human GLP-1 receptor, cAMP accumulation, 30 min, read-out: EC50 GLP-1R; for Emax: CHO cells, cAMP, normalized to maximum signal from GLP-1 (high) and DMSO (low), read-out: Emax GLP-1R. For orientation: Changes in cAMP serve as a functional read-out for many G protein-coupled receptors.

The target in assay [2] is T2, GIP receptor (Homo sapiens, UniProt P48546).
T2 sequence (P48546 22-466): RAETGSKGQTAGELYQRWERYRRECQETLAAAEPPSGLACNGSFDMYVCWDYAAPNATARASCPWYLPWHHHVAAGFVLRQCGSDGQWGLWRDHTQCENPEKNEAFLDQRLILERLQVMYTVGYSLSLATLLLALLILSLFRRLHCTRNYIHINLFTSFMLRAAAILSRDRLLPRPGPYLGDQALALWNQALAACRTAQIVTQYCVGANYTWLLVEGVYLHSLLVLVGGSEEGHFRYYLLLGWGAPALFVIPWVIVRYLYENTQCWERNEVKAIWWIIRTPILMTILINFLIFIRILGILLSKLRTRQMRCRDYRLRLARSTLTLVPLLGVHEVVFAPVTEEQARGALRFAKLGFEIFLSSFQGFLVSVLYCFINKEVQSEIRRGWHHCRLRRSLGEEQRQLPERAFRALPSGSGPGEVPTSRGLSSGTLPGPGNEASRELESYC
The assay can be described thus: HitHunter cAMP assay, GIP receptor. Particulars: for EC50: CHO cells stably expressing GIP receptor, cAMP accumulation, 30 min, read-out: EC50 GIP-1R; for Emax: CHO cells, cAMP, normalized to maximum signal from GIP (high) and DMSO (low), read-out: Emax GIP-1R.

The target in assay [3] is T2, GIP receptor. The assay can be described thus: PathHunter β-arrestin assay, GIP receptor. Further details: host or cells: PathHunter CHO-K1 GIPR β-Arrestin Cell Line. To be noted: β-arrestin-2 recruitment, PathHunter CHO-K1 GIPR β-Arrestin Cell Line, 90 min at 37° C.; normalized to GIP; read-out: GIPR β Arrestin EC50.
Assay [4] concerns the target T1, GLP-1 receptor. Kind of assay: PathHunter β-arrestin assay, GLP-1 receptor. Also noted: host or cells: PathHunter CHO-K1 GLP1R β-Arrestin Cell Line. Particulars: β-arrestin-2 recruitment, PathHunter CHO-K1 GLP1R β-Arrestin Cell Line, 90 min at 37° C.; normalized to GLP-1; read-out: GLP-1R β Arrestin EC50. (In general: Recruitment of arrestin is a read-out of receptor activation apart from second messengers.)
Procedure: β-arrestin-2 recruitment for GLP-1 receptor or GIP receptor was measured using the DiscoverX PathHunter Detection Kit and PathHunter® CHO-K1 GLPIR β-Arrestin Cell Line or PathHunter® CHO-K1 GIPR β-Arrestin Cell Line, respectively). Briefly, cells were grown in Ham's F12 Nutrient Mix with 10% FBS and lifted with Cell dissociation buffer, Enzyme free, PBS based (ThermoFisher). Harvested cells were pelleted and resuspended in Assay Complete Cell Plating Reagent 2 and 5000 cells per well were plated in tissue culture treated 384-well small volume white assay plates. Plates were then incubated at 37° C. and 5% CO2 overnight. The media was then replaced with fresh Assay Complete Cell Plating Reagent 2. Cells were then treated with 10 nl compound in DMSO using an ECHO 550 acoustic dispenser (Labcyte) in a 20-point dose response format in duplicate for 90 min at 37° C. The assay was then completed according to the manufacturer's instructions. Luminescence was measured using a Perkin Elmer Envision plate reader. Raw data was normalized to the maximum signal from GLP-1 or GIP (high) and DMSO (low). Dose response curves were analyzed using GraphPad Prism 9.0.

T1 sequence (P43220 24-463): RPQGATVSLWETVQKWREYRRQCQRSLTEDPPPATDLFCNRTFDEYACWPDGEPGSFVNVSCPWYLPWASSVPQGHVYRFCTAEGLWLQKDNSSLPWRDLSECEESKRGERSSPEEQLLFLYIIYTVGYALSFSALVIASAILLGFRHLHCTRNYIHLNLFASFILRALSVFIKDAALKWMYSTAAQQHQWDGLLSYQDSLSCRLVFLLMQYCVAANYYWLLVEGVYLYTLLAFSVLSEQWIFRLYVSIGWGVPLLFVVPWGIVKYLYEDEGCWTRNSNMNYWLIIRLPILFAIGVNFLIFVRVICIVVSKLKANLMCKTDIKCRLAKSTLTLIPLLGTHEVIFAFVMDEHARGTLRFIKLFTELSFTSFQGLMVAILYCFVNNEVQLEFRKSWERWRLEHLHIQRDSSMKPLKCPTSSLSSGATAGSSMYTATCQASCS

On to `CC[C@H](C)[C@H](NC(=O)[C@H](CC(C)C)NC(=O)[C@H](Cc1c[nH]c2ccccc12)NC(=O)[C@H](CCC(N)=O)NC(=O)[C@@H](NC(=O)[C@H](Cc1ccccc1)NC(=O)[C@H](C)NC(=O)[C@H](CCCCNC(=O)COCCOCCNC(=O)COCCOCCNC(=O)CC[C@H](NC(=O)CCCCCCCCCCCCCCCCCCC(=O)O)C(=O)O)NC(=O)[C@H](CCC(N)=O)NC(=O)[C@H](C)NC(=O)[C@@H](NC(=O)[C@H](CCCCN)NC(=O)[C@H](CC(=O)O)NC(=O)[C@H](CC(C)C)NC(=O)C(C)(C)NC(=O)[C@@H](NC(=O)[C@H](CO)NC(=O)[C@H](Cc1ccc(O)cc1)NC(=O)[C@H](CC(=O)O)NC(=O)[C@H](CO)NC(=O)[C@@H](NC(=O)[C@H](Cc1ccccc1)NC(=O)[C@@H](NC(=O)CNC(=O)[C@H](CCC(=O)O)NC(=O)[C@@H](C)CNC(=O)C1(c2ccc(Cl)cc2)CCCC1)[C@@H](C)O)[C@@H](C)O)[C@@H](C)CC)[C@@H](C)CC)C(C)C)C(=O)N[C@@H](C)C(=O)NCC(=O)NCC(=O)N1CCC[C@H]1C(=O)N[C@@H](CO)C(=O)N[C@@H](CO)C(=O)NCC(=O)N[C@@H](C)C(=O)N1CCC[C@H]1C(=O)N1CCC[C@H]1C(=O)N1CCC[C@H]1C(=O)N[C@@H](CO)C(N)=O` [Compound 181] ({cPentCO(1-(4-ClPh))}-[β2hAla(2S)]EGTFTSDYSI[Aib]LDKIAQK([AEEA-AEEA-γGlu-C20 diacid])AFVQWLIAGGPSSGAPPPS-NH2), for which the EC50 – broadly, the concentration giving half of the maximal effect – is 0.1 to 1 nM at GLP-1 receptor [1], 1 to 10 nM on GIP receptor [2], under 1000 nM on GIP receptor [3] and over 1000 nM at GLP-1 receptor [4]. Besides, the values for the Emax at GLP-1 receptor [1] and at GIP receptor [2] were 97% and 106%, respectively.
With `CC[C@H](C)[C@H](NC(=O)[C@H](CC(C)C)NC(=O)[C@H](Cc1c[nH]c2ccccc12)NC(=O)[C@H](CCC(N)=O)NC(=O)[C@@H](NC(=O)[C@H](Cc1ccccc1)NC(=O)[C@H](C)NC(=O)[C@H](CCCCNC(=O)COCCOCCNC(=O)COCCOCCNC(=O)CC[C@H](NC(=O)CCCCCCCCCCCCCCCCCCC(=O)O)C(=O)O)NC(=O)[C@H](CCC(N)=O)NC(=O)[C@H](C)NC(=O)[C@@H](NC(=O)[C@H](CCCCN)NC(=O)[C@H](CC(=O)O)NC(=O)[C@H](CC(C)C)NC(=O)C(C)(C)NC(=O)[C@@H](NC(=O)[C@H](CO)NC(=O)[C@H](Cc1ccc(O)cc1)NC(=O)[C@H](CC(=O)O)NC(=O)[C@H](CO)NC(=O)[C@@H](NC(=O)[C@H](Cc1ccccc1)NC(=O)[C@@H](NC(=O)CNC(=O)[C@H](CCC(=O)O)NC(=O)CCNC(=O)C(C)(C)c1ccccc1F)[C@@H](C)O)[C@@H](C)O)[C@@H](C)CC)[C@@H](C)CC)C(C)C)C(=O)N[C@@H](C)C(=O)NCC(=O)NCC(=O)N1CCC[C@H]1C(=O)N[C@@H](CO)C(=O)N[C@@H](CO)C(=O)NCC(=O)N[C@@H](C)C(=O)N1CCC[C@H]1C(=O)N1CCC[C@H]1C(=O)N1CCC[C@H]1C(=O)N[C@@H](CO)C(N)=O` [Compound 198] ({X61-βAla}-EGTFTSDYSI[Aib]LDKIAQK([AEEA-AEEA-γGlu-C20 diacid])AFVQWLIAGGPSSGAPPPS-NH2), the EC50 at GLP-1 receptor [1] is 0.1 to 1 nM; at GIP receptor [2], 1 to 10 nM; at GIP receptor [3], under 1000 nM; on GLP-1 receptor [4], over 1000 nM. Also, the Emax – broadly, the maximal effect, on the per cent scale that the assay sets – came to 99% on GLP-1 receptor [1] and 102% at GIP receptor [2].
